In patent US12017974B2, “Adamantanecarboxylic acid benzyl amide derivative compound and skin whitening composition comprising same” (AMOREPACIFIC CORPORATION, priority 2019, dated 2024):

tested on: B16F10 (malignant melanoma cells); assay: Effect of inhibiting melanin formation in melanocytes (Dooley method); assay type: cell-based; details: Mus musculus, B16-F10, 72 h; mice-derived B16F10 cells; treated continuously for 3 days; melanin dissolved in 1 N NaOH, absorbance at 405 nm; read-out: Inhibition of melanin formation IC50
Description: Each of the amide derivative compounds according to Examples was determined in terms of the effect of inhibiting melanin formation in melanocytes by using the Dooley method. As a cell line, a mice-derived B16F10 (malignant melanoma cells) available from Korean Cell Line Bank was used. In addition, DMEM (Cat No. 11195), FBS (Cat No. 16000-044) and antibiotic-antifungal agent (Cat No. 15240-062) required for culturing cells were purchased from Invitrogen (GIBCO). The cell line was cultured at 37° C. under 5% CO2. The cultured B16F10 cells were stripped off with 0.05% trypsin-EDTA, the same number of cells (1×10^4 cells/well) was inoculated into a 48-well plate, and then the medium was exchanged with a medium containing 10 ppm of each Example continuously for 3 days from the next day. As a positive control, kojic acid and 5-adamantan-1-yl-N-(2,4-dihydroxybenzyl)-2,4-dimethoxybenzamide were used. After the fifth day, the cells were treated with 1 N NaOH to carry out reaction at 60° C. for 2 hours so that melanin contained in the cells might be dissolved, and then the amount of melanin was measured by determining the absorbance at 405 nm. Then, the concentration (IC50) of each Example required for reducing melanin formation by half in melanocytes was calculated.

Row | Structure (SMILES) | IC50
1 | COc1cc(OC)c(C23CC4CC(CC(C4)C2)C3)cc1C(=O)NCc1ccc(O)cc1O [5-adamantan-1-yl-N-(2,4-dihydroxybenzyl)-2,4-dimethoxybenzamide, reference compound] | 1100 nM
2 | O=C(NCc1ccc(O)cc1O)C12CC3CC(CC(C3)C1)C2 [Example 1, Adamantane-1-Carboxylic Acid 2,4-Dihydroxybenzylamide] | 15000 nM
3 | O=C(NCc1ccc(O)c(O)c1)C12CC3CC(CC(C3)C1)C2 [Example 2, Adamantane-1-Carboxylic Acid 3,4-Dihydroxybenzylamide] | 20 nM
4 | O=C(NCc1cc(O)cc(O)c1)C12CC3CC(CC(C3)C1)C2 [Example 3, Adamantane-1-Carboxylic Acid 3,5-Dihydroxybenzylamide] | 20600 nM

Further lines, results first:

Row | IC50 | Structure (SMILES)
5 | 1430 nM | O=C(NCc1cc(O)ccc1O)C12CC3CC(CC(C3)C1)C2 [Example 4, Adamantane-1-Carboxylic Acid 2,5-Dihydroxybenzylamide]
6 | 11100 nM | O=C(NCc1ccc(O)cc1)C12CC3CC(CC(C3)C1)C2 [Example 5, Adamantane-1-Carboxylic Acid 4-Hydroxybenzylamide]
7 | 480 nM | O=C(NCc1cccc(O)c1)C12CC3CC(CC(C3)C1)C2 [Example 6, Adamantane-1-Carboxylic Acid 3-Hydroxybenzylamide]
8 | 2360 nM | O=C(NCc1ccccc1O)C12CC3CC(CC(C3)C1)C2 [Example 7, Adamantane-1-Carboxylic Acid 2-Hydroxybenzylamide]
9 | 500000 nM | O=c1cc(CO)occ1O [Kojic acid, reference compound]
